Blank lines part the entries; values can stand above or below the compound they belong to. Calls of active or inactive are those of the source.
Legend:
[1] = target: Intestinal-type alkaline phosphatase (Mus musculus, UniProt P24822); experiment: PubChem AID 488875; assay type: functional
[2] = target: T1, Intestinal-type alkaline phosphatase (Homo sapiens, UniProt P09923); experiment: human intestinal alkaline phosphatase activators, dose response, biochemical, luminescence, uHTS hits (AID 463120); assay type: functional
T1 sequence (P09923 whole entry): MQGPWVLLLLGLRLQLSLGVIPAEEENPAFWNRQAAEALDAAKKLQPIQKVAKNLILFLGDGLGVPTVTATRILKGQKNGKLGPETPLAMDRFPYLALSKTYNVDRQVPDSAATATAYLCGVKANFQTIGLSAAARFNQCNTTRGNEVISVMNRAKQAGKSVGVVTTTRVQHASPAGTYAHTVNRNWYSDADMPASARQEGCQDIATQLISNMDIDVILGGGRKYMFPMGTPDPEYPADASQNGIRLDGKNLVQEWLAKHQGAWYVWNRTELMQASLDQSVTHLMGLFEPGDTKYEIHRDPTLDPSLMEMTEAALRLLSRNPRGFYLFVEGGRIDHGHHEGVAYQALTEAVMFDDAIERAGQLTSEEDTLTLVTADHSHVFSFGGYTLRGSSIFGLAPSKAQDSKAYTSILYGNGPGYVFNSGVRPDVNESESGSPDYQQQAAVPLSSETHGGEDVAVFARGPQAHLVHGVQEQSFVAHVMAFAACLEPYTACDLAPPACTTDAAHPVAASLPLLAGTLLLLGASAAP

[3] = target: T1, Intestinal-type alkaline phosphatase; experiment: activation of human intestinal alkaline phosphatase – biochemical, luminescent, uHTS hits, set 2, dose response (AID 488817); assay type: functional;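 note: potency of activators that raise enzyme activity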
[4] = target: T2, Alkaline phosphatase, tissue-nonspecific isozyme (Homo sapiens, UniProt P05186); experiment: activation of tissue-nonspecific alkaline phosphatase – biochemical, TNAP isozyme, human IAP uHTS hits, selectivity assay for human IAP activator project, dose response (AID 488886); assay type: functional;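 note: potency of compounds raising TNAP activity as a selectivity check on IAP activators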
T2 sequence (P05186 whole entry): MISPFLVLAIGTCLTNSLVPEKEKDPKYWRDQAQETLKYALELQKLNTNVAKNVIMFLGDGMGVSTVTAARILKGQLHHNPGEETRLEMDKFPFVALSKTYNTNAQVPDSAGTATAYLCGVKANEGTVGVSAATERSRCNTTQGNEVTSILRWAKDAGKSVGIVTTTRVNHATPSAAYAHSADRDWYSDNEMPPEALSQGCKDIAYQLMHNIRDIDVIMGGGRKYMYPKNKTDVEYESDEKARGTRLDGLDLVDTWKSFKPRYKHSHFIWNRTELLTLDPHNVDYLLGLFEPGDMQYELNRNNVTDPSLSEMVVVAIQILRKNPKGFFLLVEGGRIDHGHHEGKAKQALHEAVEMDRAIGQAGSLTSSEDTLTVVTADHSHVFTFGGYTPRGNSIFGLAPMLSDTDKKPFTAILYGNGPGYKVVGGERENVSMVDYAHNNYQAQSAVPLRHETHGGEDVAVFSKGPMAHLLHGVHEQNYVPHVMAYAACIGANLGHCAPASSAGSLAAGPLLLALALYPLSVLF

[5] = target: T3, Voltage-gated N-type calcium channel alpha-1B subunit/Amyloid beta A4 precursor protein-binding family A member 1 (Homo sapiens, UniProt Q00975+Q02410); assay type: protein assay
T3 sequence (Q00975 whole entry): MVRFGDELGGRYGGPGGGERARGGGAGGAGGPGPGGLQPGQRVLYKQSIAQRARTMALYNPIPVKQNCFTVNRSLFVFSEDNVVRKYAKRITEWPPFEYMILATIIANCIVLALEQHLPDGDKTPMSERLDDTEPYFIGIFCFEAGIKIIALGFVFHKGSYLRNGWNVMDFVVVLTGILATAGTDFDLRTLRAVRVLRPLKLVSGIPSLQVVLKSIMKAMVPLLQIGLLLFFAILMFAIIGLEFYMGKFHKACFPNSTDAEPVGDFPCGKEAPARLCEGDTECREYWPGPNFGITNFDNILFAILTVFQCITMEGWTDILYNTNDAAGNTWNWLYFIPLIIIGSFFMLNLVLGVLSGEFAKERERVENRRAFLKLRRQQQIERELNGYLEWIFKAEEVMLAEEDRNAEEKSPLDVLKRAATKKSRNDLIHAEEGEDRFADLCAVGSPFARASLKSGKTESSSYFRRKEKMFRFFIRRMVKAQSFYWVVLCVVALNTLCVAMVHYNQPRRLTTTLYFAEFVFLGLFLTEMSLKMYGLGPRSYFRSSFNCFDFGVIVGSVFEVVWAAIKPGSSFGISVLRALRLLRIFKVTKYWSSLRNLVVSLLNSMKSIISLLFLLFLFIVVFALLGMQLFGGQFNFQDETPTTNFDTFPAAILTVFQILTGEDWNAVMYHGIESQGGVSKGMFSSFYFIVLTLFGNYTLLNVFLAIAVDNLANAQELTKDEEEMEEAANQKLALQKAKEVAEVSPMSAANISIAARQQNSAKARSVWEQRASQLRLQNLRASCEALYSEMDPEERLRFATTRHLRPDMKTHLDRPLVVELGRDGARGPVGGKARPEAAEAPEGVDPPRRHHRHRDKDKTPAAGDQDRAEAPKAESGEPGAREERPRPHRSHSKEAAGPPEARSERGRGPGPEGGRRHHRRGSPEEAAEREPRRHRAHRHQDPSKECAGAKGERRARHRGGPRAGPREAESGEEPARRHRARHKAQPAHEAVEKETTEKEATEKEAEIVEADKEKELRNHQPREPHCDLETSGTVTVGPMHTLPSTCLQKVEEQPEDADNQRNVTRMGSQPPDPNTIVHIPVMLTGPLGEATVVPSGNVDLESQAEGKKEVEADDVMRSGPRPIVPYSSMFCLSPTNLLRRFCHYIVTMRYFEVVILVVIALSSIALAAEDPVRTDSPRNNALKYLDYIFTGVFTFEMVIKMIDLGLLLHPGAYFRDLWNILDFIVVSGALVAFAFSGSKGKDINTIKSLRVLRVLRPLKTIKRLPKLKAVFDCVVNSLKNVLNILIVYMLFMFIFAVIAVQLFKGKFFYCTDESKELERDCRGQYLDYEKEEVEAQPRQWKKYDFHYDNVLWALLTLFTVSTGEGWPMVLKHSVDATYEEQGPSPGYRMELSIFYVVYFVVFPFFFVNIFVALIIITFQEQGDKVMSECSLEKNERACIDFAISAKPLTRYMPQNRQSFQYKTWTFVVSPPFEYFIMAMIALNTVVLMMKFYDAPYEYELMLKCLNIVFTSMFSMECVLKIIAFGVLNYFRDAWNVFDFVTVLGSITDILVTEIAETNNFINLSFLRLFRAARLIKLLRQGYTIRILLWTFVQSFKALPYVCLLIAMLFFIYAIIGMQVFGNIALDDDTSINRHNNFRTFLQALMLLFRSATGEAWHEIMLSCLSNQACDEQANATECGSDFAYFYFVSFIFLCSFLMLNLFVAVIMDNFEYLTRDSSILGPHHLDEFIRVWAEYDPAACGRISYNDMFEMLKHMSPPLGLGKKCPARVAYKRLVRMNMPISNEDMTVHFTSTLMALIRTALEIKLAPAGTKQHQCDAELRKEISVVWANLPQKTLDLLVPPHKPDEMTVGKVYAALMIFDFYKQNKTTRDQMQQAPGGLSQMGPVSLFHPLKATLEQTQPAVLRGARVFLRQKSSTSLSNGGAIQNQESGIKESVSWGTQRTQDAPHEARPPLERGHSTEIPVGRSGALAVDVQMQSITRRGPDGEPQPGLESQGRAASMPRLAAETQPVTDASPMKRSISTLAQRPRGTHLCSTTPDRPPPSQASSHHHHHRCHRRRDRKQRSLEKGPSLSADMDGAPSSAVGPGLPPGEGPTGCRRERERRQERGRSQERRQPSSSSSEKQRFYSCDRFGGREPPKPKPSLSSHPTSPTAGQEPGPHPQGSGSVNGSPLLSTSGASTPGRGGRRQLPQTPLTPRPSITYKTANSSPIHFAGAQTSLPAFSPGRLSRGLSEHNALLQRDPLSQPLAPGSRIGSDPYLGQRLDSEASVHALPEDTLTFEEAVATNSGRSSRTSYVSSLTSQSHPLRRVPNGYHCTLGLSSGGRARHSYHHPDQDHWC
T3 sequence (Q02410 whole entry): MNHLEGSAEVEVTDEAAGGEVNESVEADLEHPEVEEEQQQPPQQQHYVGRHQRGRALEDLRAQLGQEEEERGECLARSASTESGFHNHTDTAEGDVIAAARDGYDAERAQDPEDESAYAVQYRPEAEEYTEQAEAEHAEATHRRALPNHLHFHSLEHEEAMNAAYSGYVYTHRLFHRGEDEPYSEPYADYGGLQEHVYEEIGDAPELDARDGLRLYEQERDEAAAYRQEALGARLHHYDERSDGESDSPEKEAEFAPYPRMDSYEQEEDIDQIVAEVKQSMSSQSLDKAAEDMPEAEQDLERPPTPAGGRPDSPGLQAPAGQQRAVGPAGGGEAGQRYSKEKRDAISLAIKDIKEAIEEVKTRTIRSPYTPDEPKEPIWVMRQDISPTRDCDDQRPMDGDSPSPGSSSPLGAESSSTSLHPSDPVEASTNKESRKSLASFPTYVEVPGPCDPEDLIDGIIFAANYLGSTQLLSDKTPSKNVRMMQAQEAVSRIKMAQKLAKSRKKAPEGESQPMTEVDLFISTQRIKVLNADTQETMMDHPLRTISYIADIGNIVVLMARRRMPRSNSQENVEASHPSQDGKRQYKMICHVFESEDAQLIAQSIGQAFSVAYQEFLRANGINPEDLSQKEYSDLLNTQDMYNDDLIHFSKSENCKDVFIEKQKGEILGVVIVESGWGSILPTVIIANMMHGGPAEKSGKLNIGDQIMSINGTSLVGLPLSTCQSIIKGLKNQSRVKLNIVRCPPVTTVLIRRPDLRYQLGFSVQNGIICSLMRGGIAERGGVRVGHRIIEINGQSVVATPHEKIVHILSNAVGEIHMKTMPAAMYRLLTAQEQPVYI

[6] = target: T3, Voltage-gated N-type calcium channel alpha-1B subunit/Amyloid beta A4 precursor protein-binding family A member 1; assay type: protein assay; remark: listed apart in the source
[7] = target: T4, Apoptotic protease-activating factor 1 (Homo sapiens, UniProt O14727); experiment: activation of Apaf-1 mediated apoptosis – fluorescent, uHTS hits, dose response (AID 588554); assay type: functional
T4 sequence (O14727 whole entry): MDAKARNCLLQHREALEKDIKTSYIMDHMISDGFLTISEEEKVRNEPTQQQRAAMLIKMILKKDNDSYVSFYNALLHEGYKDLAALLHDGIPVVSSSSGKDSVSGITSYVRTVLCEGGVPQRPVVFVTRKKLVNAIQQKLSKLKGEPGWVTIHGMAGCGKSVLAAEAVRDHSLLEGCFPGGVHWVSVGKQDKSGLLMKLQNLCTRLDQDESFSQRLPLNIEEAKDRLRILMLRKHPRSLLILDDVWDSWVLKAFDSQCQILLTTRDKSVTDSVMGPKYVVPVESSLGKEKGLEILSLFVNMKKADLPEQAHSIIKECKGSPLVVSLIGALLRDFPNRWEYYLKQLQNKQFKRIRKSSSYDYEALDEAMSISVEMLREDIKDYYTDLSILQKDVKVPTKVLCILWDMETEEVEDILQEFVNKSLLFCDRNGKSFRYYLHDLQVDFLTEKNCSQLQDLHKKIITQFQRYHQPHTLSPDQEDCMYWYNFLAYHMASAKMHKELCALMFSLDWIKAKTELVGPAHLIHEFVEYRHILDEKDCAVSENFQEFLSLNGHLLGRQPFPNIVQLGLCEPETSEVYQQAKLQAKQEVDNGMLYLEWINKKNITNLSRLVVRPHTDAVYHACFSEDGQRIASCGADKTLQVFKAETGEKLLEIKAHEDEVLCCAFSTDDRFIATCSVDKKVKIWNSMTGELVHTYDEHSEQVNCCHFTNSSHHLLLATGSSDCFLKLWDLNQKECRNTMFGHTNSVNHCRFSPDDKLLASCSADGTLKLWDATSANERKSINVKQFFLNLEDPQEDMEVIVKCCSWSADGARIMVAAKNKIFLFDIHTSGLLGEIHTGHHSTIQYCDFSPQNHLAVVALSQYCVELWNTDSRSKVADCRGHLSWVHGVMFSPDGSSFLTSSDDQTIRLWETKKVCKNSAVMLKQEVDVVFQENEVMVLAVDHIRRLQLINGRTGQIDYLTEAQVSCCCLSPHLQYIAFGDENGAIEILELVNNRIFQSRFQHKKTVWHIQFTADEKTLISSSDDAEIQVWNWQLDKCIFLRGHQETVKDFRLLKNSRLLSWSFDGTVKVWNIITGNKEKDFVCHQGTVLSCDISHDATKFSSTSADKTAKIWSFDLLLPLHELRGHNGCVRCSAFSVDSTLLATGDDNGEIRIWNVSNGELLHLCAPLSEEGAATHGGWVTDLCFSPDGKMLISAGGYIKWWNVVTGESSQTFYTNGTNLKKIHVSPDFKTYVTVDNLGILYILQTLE

cells [8] = assay type: functional, cell-based
cells [9] = assay type: functional, cell-based; remark: listed apart in the source
[10] = Luminescence Cell-Based Dose Retest to Confirm Inhibitors of Cancer Stem Cells. [Related pubchem assays (depositor defined):AID2717, AID2721]; assay type: functional; details: Homo sapiens
[11] = target: T5, Heat shock factor protein 1 (Mus musculus, UniProt P38532); experiment: enhancement of HSF1-driven luciferase signal – cell-based, NIH3T3, luminescence, dose retest, confirmation (AID 435004); assay type: functional;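 note: stress induced by proteasome inhibitor MG132 added 30 min after compound; luciferase reporter driven by HSF1 response element in NIH3T3 cells; actives raise luminescence as potentiators of the MG132 stress response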
T5 sequence (P38532 whole entry): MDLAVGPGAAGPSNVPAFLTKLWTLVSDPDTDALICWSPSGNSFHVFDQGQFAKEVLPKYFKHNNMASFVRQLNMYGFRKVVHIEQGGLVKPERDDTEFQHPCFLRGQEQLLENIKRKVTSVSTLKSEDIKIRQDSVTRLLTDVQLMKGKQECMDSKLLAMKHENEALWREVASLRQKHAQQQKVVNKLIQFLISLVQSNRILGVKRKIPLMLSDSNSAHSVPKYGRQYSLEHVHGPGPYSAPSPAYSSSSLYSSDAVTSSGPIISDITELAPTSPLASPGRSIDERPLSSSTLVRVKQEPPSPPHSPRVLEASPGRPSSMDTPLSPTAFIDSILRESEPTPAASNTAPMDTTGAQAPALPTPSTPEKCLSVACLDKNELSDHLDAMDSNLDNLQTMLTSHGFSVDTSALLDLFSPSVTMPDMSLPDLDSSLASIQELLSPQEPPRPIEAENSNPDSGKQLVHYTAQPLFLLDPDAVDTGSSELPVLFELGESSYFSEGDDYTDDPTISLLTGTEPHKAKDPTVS

Hexokinase HKDC1 = target: T6, Hexokinase HKDC1 (Homo sapiens, UniProt Q2TB90); experiment: inhibition of HKDC1 glucose phosphorylation – biochemical, W721R variant, dose response (AID 504729); assay type: functional
T6 sequence (Q2TB90 whole entry): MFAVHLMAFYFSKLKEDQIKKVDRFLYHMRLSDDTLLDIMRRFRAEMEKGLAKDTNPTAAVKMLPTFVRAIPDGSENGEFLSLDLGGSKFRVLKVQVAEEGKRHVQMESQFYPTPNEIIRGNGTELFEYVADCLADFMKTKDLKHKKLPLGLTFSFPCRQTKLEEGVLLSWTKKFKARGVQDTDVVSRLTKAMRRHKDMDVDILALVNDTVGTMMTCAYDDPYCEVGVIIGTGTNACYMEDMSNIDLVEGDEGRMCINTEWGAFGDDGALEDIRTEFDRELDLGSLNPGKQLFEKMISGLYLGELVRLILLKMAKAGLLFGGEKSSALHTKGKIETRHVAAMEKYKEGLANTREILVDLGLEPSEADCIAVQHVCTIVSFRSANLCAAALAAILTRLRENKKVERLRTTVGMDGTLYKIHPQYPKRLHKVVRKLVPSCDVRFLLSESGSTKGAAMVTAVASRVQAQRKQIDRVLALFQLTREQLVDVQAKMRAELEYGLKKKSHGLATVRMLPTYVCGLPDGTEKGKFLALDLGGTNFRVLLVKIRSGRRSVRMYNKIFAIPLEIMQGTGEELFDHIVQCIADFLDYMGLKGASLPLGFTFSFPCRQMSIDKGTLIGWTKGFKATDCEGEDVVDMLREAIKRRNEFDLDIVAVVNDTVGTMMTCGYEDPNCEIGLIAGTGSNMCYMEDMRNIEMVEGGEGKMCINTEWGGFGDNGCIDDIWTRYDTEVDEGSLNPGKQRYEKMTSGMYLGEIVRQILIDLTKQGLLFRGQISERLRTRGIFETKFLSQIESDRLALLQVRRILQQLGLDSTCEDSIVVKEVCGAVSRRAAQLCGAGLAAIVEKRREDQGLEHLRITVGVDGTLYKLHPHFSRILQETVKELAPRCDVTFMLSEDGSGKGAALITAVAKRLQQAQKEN

[12] = target: Lysine-specific demethylase 4A (Homo sapiens, UniProt O75164); experiment: inhibition of JMJD2A H3K9me3 demethylation – biochemical, DELFIA europium, cherry-picked samples, selectivity assay for GASC-1 inhibitor project, dose response (AID 488840)
[13] = target: Lysine-specific demethylase 4C (Homo sapiens, UniProt Q9H3R0); experiment: inhibition of JMJD2C H3K9me3 demethylation – biochemical, DELFIA europium, cherry-picked samples, dose response (AID 488835); assay type: functional
Sequence of Lysine-specific demethylase 4C (Q9H3R0 whole entry): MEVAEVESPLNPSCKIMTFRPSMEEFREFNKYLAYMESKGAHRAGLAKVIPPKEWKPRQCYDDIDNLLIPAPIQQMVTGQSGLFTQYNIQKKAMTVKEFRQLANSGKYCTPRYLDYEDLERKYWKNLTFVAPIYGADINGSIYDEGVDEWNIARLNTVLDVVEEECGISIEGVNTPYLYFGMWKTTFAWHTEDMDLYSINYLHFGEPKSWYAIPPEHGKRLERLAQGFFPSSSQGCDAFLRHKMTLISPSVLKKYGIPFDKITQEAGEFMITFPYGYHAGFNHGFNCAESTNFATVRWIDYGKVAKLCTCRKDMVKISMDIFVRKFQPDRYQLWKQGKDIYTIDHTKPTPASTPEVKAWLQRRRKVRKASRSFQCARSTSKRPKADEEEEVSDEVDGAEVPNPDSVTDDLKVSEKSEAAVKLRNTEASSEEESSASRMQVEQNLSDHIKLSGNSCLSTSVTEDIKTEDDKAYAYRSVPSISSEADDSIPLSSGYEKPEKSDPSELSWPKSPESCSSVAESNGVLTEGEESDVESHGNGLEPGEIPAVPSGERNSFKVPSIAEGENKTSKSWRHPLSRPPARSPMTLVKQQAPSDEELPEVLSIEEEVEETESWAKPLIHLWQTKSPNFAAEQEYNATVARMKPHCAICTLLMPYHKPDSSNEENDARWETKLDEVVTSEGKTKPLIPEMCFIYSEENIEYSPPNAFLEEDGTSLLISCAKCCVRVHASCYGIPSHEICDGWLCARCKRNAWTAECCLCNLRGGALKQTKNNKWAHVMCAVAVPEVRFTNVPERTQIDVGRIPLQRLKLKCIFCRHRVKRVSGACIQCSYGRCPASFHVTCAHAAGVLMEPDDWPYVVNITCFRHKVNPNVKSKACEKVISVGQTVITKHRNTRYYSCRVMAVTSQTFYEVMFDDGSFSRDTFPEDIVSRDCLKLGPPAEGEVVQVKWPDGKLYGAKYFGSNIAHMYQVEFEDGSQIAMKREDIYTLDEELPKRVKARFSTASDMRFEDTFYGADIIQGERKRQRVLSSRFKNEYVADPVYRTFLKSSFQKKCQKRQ

INS1 = experiment: INS-1E survival protection against cytokine death – cell-based, luminescence, retest, dose response (AID 449756); assay type: functional; details: Rattus norvegicus;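 note: cell death triggered by IL-1 beta plus TNF-alpha plus IFN-gamma mixture; protective hits raise ATP signal compared with cytokine alone wells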
Trypsin = Trypsin (Sus scrofa, UniProt P00761); experiment: trypsin protease activity blockade – biochemical, quenched peptide fluorescence, cherry-pick, selectivity assay for Rce1 protease inhibitor project, dose response (AID 488789)
Sequence of Trypsin (P00761 whole entry): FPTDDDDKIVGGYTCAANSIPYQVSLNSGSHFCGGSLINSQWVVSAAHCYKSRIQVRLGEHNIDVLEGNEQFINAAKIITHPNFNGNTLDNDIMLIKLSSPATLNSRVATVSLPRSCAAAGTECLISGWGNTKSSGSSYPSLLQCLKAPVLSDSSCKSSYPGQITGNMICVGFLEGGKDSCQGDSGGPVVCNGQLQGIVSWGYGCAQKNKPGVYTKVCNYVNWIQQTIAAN

CAAX prenyl protease 1 = CAAX prenyl protease 1 (Saccharomyces cerevisiae S288c, UniProt P47154); experiment: yeast CAAX protease Ste24 inhibition – biochemical, S. cerevisiae, plate reader, cherry-pick, dose response (AID 488815)
CAAX prenyl protease 2 = target: T7, CAAX prenyl protease 2 (Homo sapiens, UniProt Q9Y256); experiment: inhibition of Ras-converting CAAX protease Rce1 – biochemical, yeast membranes, quenched-peptide fluorescence, cherry-pick, dose response (AID 588849)
T7 sequence (Q9Y256 whole entry): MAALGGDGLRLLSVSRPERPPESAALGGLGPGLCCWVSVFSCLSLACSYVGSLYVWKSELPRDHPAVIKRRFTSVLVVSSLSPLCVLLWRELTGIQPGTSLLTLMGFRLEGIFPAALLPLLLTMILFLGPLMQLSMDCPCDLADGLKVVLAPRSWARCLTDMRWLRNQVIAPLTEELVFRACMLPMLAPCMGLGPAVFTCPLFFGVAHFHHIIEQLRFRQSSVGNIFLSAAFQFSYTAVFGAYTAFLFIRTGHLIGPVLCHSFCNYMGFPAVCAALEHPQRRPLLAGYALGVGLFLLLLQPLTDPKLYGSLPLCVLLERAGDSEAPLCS

[14] = Luminescence Cell-Based Dose Response Follow up to Identify Inhibitors of Platelet Dense Granule Release. [Related pubchem assays (depositor defined):AID1663, AID1678, AID1889, AID2519]; assay type: functional
Candida albicans = experiment: Candida growth inhibition combined with fluconazole – CaCi-2 strain, Alamar Blue, dry powder, set 3, dose response (AID 488907); assay type: functional, organism-based
HEK293 [15] = experiment: cells; details: Homo sapiens
HEK293 [16] = experiment: cells; details: Homo sapiens; remark: listed apart in the source

EC50 [1]: 33.9 µM (active)
EC50 [2]: 61.3 µM (active)
EC50 [3]: 46.9 µM (active)
EC50 [4]: 63.1 µM (active)
SMILES: COc1cc(NC(=O)NCC2CCN(Cc3ccccc3Cl)CC2)cc(OC)c1OC

IC50 [5]: 18.6 µM (active)
IC50 [6]: > 50 µM (inactive)
EC50 [7]: 7.82 µM (active)
SMILES: Cc1cc(C)c2c(=O)c(/C=C3\NC(=S)NC3=O)coc2c1

SMILES: Oc1ccc(/C=N/Nc2ncc(Br)cn2)c(O)c1
EC50 (cells [8]): 41.1 µM (active)
EC50 (cells [9]): > 350 µM (not active)
AC50 [10]: 4.55 µM (active)
EC50 [11]: 18.6 µM (active)
IC50 (Hexokinase HKDC1): 1.68 µM (active)
AC50 [12]: > 60 µM (inactive)
AC50 [13]: 829 nM (active)
AC50 (INS1): 1.54 µM (active)

AC50 (Trypsin): 27.2 µM (active)
AC50 (CAAX prenyl protease 1): 8.08 µM (active)
AC50 (CAAX prenyl protease 2): 22.2 µM (active)
SMILES: COc1ccc2c(c1)cc(C(=O)N[C@@H](CCSC)C(=O)N1CCC(C(=O)O)CC1)n2C

SMILES: CCCC(=O)Nc1cccc(NC(=O)Cc2ccc(Cl)cc2)c1
EC50 [14]: 500 µM (inactive)

SMILES: Cc1ccnc(N2CCN(C(=O)c3ccc(Cl)cc3)CC2)c1
AC50 (Candida albicans): 87.3 nM (active)

SMILES: COc1cc2c(cc1OC)-c1cc(OCc3cccnc3)nc(=O)n1CC2
EC50 (HEK293 [15]): > 59.6 µM (inactive)
EC50 (HEK293 [16]): > 59.6 µM (inactive)

From ChEMBL document CHEMBL1201862, “PubChem BioAssay data set” (2004)
